Source: ChEMBL document CHEMBL1122335, “Synthesis of an N-aminopyrazinonium analogue of cytidine” (J Med Chem, 1983)

How the values were obtained:
L1210 [1] = assay: Growth inhibition of L1210 cells in culture in the first 48 hours of exposure at a concentration of 1 x 10e-5 M; format: functional; details: Mus musculus, L1210, 48 h
L1210 [2] = assay: Growth inhibition of L1210 cells in culture in the first 48 hours of exposure at a concentration of 5 x 10e-5 M; format: functional; details: Mus musculus, L1210, 48 h
L1210 [3] = assay: Growth inhibition of L1210 cells in culture in the first 48 hours of exposure at a concentration of 5 x 10e-6 M; format: functional; details: Mus musculus, L1210, 48 h
[4] = Ionization constant of the compound; format: physicochemical

- pKa [4]: 8.8
SMILES: Nn1ccn([C@@H]2O[C@H](CO)[C@@H](O)[C@H]2O)c(=O)c1=O
- inhibition at 10 µM (L1210 [1]): 20%
- inhibition at 50 µM (L1210 [2]): 25%
- inhibition at 5 µM (L1210 [3]): 15%
